Measured values taken from PMC6976569, “Structural basis of subtype-selective competitive antagonism for GluN2C/2D-containing NMDA receptors” (Nature Communications, 2020).

Legend:
Assay type in all cases: cell-based
[1] = biological target: T1, GluN1-4a/GluN2D Met763Lys NMDARs (Rattus norvegicus, UniProt P35439+Q62645, M763K); assay: TEVC electrophysiology on oocytes expressing GluN1-4a/GluN2D Met763Lys
T1 construct: expressed in transfected cells; host or cells: Xenopus laevis oocytes injected with cRNA
T1 sequence (Q62645 28-1323 M763K, other chains not shown): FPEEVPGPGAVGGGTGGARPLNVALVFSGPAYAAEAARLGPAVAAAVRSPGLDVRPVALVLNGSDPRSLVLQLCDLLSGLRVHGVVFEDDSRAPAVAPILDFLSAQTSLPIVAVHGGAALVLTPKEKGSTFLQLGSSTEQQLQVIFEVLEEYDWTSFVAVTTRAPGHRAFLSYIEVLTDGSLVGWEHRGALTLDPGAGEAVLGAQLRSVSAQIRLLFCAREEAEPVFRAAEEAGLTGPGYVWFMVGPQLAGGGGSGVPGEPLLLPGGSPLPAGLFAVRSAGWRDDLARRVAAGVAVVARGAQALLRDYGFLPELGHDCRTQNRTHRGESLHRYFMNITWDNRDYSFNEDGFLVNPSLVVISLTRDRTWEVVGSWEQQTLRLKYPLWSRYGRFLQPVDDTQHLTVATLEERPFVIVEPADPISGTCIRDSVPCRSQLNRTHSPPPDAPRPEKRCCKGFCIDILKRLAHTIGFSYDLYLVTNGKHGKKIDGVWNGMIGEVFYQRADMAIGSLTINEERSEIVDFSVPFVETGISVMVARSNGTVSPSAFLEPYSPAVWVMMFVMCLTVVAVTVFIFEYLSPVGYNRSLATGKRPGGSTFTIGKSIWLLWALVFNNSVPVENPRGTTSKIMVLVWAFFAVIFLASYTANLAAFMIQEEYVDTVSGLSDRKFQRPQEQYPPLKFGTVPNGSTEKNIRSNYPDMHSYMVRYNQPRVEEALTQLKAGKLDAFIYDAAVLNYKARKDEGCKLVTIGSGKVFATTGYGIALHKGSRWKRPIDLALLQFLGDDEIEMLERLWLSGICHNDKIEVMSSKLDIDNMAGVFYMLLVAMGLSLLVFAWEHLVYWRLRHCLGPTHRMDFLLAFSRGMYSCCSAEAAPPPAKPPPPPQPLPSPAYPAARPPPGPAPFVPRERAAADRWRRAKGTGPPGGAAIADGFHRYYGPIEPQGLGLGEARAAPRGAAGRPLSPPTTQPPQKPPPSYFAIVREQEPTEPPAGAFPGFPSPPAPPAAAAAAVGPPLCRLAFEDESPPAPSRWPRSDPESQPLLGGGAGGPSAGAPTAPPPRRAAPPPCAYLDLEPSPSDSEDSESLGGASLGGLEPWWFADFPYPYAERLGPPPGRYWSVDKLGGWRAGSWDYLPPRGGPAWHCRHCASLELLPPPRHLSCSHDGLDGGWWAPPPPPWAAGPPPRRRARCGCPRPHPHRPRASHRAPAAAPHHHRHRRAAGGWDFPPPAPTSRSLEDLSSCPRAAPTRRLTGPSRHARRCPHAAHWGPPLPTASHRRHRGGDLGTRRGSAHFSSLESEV
Source text: (§1) To test the validity of the structural observation for the critical involvement of the methionine/lysine residue combination (GluN2D-Met763/Lys766, and GluN2A-4m-Met738/Lys741) in preferential binding of UBP791 to GluN2D over GluN2A, we conducted site-directed mutagenesis and assessed inhibition potencies of the mutant channels by TEVC. Specifically, we converted the GluN2D residues to the equivalent ones in the GluN2A subunit and measured macroscopic currents of the GluN1-4a/GluN2D mutant NMDARs.
(§2) Plasmids (pSP or pCI_NEO) harboring rat GluN1 or GluN2 full-length subunits were linearized by restriction digestion and transcribed according to the manufacturer’s instructions (mMESSAGE mMachine SP6 or T7 kit, ThermoFisher Scientific). Recombinant rat GluN1-4a and GluN2 were expressed by co-injecting cRNA at a 1:2 (w/w) ratio into defolliculated X. laevis oocytes (amounts varied from 0.05–25 ng per oocyte). Two-electrode voltage-clamp recordings were performed 1–3 days after injection using agarose-tipped microelectrodes (0.4–1.2 MΩ) filled with 3 M KCl at a holding potential of −60 mV. The bath solution contained 5 mM HEPES, 100 mM NaCl, 0.3 mM BaCl2, 10 mM Tricine, at pH 7.4 (adjusted with KOH). […] For the statistical evaluation, we implemented pairwise F-tests to test variances, and then performed the Student t test with equal or unequal variances as determined previously, and accounted for multiple testing with the Bonferroni correction.

[2] = biological target: T2, GluN1-4a/GluN2D Met763Lys/Lys766Arg NMDARs (Rattus norvegicus, UniProt Q62645, K766R/M763K); assay: TEVC electrophysiology on oocytes expressing GluN1-4a/GluN2D Met763Lys/Lys766Arg; conditions: Ki mutant relative to Ki GluN2D (WT)
T2 construct: expressed in transfected cells; host or cells: Xenopus laevis oocytes injected with cRNA
T2 sequence (Q62645 28-1323 M763K/K766R, other chains not shown): as the sequence (Q62645 28-1323 M763K, other chains not shown) above, with K739R counted along it
Source text: as §1, §2

[3] = biological target: T3, GluN1-4a/GluN2D Met763Lys/Lys766Arg NMDARs (Rattus norvegicus, UniProt P35439+Q62645, K766R/M763K); assay: as above
T3 construct: expressed in transfected cells; host or cells: Xenopus laevis oocytes injected with cRNA
T3 sequence (Q62645 28-1323 M763K/K766R, other chains not shown): as the sequence (Q62645 28-1323 M763K, other chains not shown) above, with K739R counted along it
Source text: as §1, §2

[4] = biological target: T4, GluN1-4a/GluN2D Lys766Arg NMDARs (Rattus norvegicus, UniProt P35439+Q62645, K766R); assay: TEVC electrophysiology on oocytes expressing GluN1-4a/GluN2D Lys766Arg
T4 construct: expressed in transfected cells; host or cells: Xenopus laevis oocytes injected with cRNA
T4 sequence (Q62645 28-1323 K766R, other chains not shown): as the sequence (Q62645 28-1323 M763K, other chains not shown) above, with K736M, K739R counted along it
Source text: as §1, §2

GluN1-4a/GluN2C NMDARs = biological target: T5, GluN1-4a/GluN2C NMDARs (Rattus norvegicus, UniProt Q00961); assay: TEVC electrophysiology on Xenopus laevis oocytes expressing GluN1-4a/GluN2C; conditions: Ki GluN2C relative to Ki GluN2D (WT)
T5 construct: expressed in transfected cells; host or cells: Xenopus laevis oocytes injected with cRNA
T5 sequence (Q00961 20-1237, other chains not shown): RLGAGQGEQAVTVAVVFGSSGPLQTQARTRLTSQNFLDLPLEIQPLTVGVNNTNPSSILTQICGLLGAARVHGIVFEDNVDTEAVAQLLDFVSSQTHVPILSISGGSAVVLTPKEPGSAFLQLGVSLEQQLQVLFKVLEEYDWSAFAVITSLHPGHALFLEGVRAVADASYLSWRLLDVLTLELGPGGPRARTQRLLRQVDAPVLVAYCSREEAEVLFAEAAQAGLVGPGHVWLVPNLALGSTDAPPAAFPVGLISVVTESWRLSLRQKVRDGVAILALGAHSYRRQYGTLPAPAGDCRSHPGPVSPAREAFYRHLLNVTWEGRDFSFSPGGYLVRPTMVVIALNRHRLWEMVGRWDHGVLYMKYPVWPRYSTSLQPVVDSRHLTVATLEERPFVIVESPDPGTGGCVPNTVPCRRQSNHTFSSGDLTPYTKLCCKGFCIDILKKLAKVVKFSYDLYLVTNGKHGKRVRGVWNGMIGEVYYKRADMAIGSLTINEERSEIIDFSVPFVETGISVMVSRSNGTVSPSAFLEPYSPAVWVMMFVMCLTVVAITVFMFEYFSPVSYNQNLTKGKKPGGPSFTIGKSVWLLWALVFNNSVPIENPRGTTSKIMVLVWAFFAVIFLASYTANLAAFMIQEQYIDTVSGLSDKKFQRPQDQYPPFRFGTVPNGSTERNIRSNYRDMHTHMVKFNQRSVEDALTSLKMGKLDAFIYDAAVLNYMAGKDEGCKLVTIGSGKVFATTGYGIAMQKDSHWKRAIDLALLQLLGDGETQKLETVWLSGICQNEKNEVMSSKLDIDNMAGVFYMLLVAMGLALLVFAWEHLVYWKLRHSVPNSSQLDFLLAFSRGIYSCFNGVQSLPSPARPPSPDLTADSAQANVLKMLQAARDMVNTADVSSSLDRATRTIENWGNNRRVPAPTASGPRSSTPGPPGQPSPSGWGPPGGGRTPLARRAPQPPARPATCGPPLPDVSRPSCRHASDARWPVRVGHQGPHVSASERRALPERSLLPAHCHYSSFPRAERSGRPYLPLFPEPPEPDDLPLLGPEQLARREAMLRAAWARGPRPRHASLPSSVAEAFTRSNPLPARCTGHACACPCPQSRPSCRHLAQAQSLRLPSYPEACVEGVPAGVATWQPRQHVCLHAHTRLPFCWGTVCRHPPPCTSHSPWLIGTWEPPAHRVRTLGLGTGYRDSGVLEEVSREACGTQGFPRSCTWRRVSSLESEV
Source text: The chemical definition of UBP791 used in this study is a cis-racemic mixture of (2S,3R)- and (2R,3S)-isomers.
as §2

SMILES | IC50 [1] | Ki [1] | fold difference of Ki vs. 2D (WT) (2D-M763K/K766R) [2] | IC50 [3] | Ki [3] | IC50 [4] | Ki [4] | fold difference of Ki vs. 2D (GluN2C) (GluN1-4a/GluN2C NMDARs)
O=C(O)CCc1ccc2c(ccc3cc(C(=O)N4CCN[C@@H](C(=O)O)[C@H]4C(=O)O)ccc32)c1 (relative stereo) [UBP791, (2S*,3R*)-1-(7-(2-carboxyethyl)phenanthrene-2-carbonyl)piperazine-2,3-dicarboxylic acid] | 1.9 ± 0.06 µM | 0.41 ± 0.07 µM | 13 fold | 7.24 ± 0.44 µM | 1.15 ± 0.05 µM | 1.45 ± 0.08 µM | 0.17 ± 0.03 µM | –
O=C(O)C=Cc1ccc2c(ccc3cc(C(=O)N4CCN[C@@H](C(=O)O)[C@H]4C(=O)O)ccc32)c1 (relative stereo) [UBP1700, (2S*,3R*)-1-(7-(2-carboxyvinyl)phenanthrene-2-carbonyl)piperazine-2,3-dicarboxylic acid] | – | – | – | – | – | – | – | ~ 1.3 fold
